Source: PubChem BioAssay (NCI)
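Cultured in 96-well plates, cells were exposed to test compound for 48 hours across five concentrations. TGI is the concentration that stops growth completely.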

Experiments:
Experiment in all cases: NCI-60 cell line screen, 48 h
LOX IMVI melanoma = system: LOX IMVI melanoma
HL-60(TB) leukemia = system: HL-60(TB) leukemia
DU-145 prostate = system: DU-145 prostate
OVCAR-4 ovarian = system: OVCAR-4 ovarian
NCI-H23 lung = system: NCI-H23 lung
U251 CNS = system: U251 CNS
HS 578T breast = system: HS 578T breast
SR leukemia = system: SR leukemia
OVCAR-5 ovarian = system: OVCAR-5 ovarian
SNB-75 CNS = system: SNB-75 CNS
A498 renal = system: A498 renal

Compound: Nn1c(-c2ccccc2)n[nH]c1=O
- TGI (LOX IMVI melanoma): > 100 µM
- TGI (HL-60(TB) leukemia): > 100 µM
- TGI (DU-145 prostate): > 100 µM
- TGI (OVCAR-4 ovarian): > 100 µM
- TGI (NCI-H23 lung): > 100 µM
- TGI (U251 CNS): > 100 µM
- TGI (HS 578T breast): > 100 µM
- TGI (SR leukemia): > 100 µM
- TGI (OVCAR-5 ovarian): > 100 µM
- TGI (SNB-75 CNS): > 100 µM
- TGI (A498 renal): > 100 µM

Compound: O=C(OCc1ccccc1)N1CCNCCN(C(=O)OCc2ccccc2)CCNCC1
- TGI (LOX IMVI melanoma): 27.5 µM
- TGI (HL-60(TB) leukemia): 93.4 µM
- TGI (DU-145 prostate): > 100 µM
- TGI (OVCAR-4 ovarian): > 100 µM
- TGI (U251 CNS): 61 µM
- TGI (HS 578T breast): 54.5 µM
- TGI (SR leukemia): > 100 µM
- TGI (OVCAR-5 ovarian): > 100 µM
- TGI (SNB-75 CNS): 85.2 µM
- TGI (A498 renal): > 100 µM

Compound: O=C(N/N=C/c1ccc(Cl)cc1)c1c(Cl)c(Cl)c(Cl)c(Cl)c1-c1nc2ccccc2[nH]1
- TGI (LOX IMVI melanoma): > 100 µM
- TGI (HL-60(TB) leukemia): > 100 µM
- TGI (DU-145 prostate): > 100 µM
- TGI (NCI-H23 lung): > 100 µM
- TGI (HS 578T breast): > 100 µM
- TGI (SR leukemia): > 100 µM
- TGI (OVCAR-5 ovarian): > 100 µM
- TGI (SNB-75 CNS): > 100 µM
- TGI (A498 renal): > 100 µM

Compound: CCN(CC)C(=S)N/N=C/c1cc([N+](=O)[O-])ccc1O
- TGI (LOX IMVI melanoma): 18.5 µM
- TGI (HL-60(TB) leukemia): 6.08 µM
- TGI (DU-145 prostate): > 100 µM
- TGI (OVCAR-4 ovarian): 19.1 µM
- TGI (NCI-H23 lung): 28.9 µM
- TGI (U251 CNS): > 100 µM
- TGI (HS 578T breast): 95.7 µM
- TGI (SR leukemia): 25.6 µM
- TGI (OVCAR-5 ovarian): > 100 µM
- TGI (SNB-75 CNS): 72.7 µM
- TGI (A498 renal): 7.47 µM

Compound: O=S(=O)(c1ccccc1)c1cccc2c1NCCC2
- TGI (LOX IMVI melanoma): > 100 µM
- TGI (HL-60(TB) leukemia): 67.4 µM
- TGI (DU-145 prostate): > 100 µM
- TGI (OVCAR-4 ovarian): > 100 µM
- TGI (HS 578T breast): > 100 µM
- TGI (SR leukemia): > 100 µM
- TGI (OVCAR-5 ovarian): > 100 µM
- TGI (SNB-75 CNS): > 100 µM
- TGI (A498 renal): > 100 µM

Compound: Cc1cccc(Cn2c3c(c4cc(O)ccc42)C(=O)c2ccccc2C3=O)c1
- TGI (LOX IMVI melanoma): > 100 µM
- TGI (HL-60(TB) leukemia): > 89 µM
- TGI (DU-145 prostate): > 100 µM
- TGI (OVCAR-4 ovarian): 4.57 µM
- TGI (NCI-H23 lung): > 100 µM
- TGI (U251 CNS): 88.3 µM
- TGI (HS 578T breast): > 100 µM
- TGI (SR leukemia): > 100 µM
- TGI (SNB-75 CNS): 8.63 µM
- TGI (A498 renal): > 100 µM

Compound: COP(=O)(OC)C1=c2c(C)noc2=C2C=COC2C1=O (stereo unspecified)
- TGI (LOX IMVI melanoma): > 100 µM
- TGI (HL-60(TB) leukemia): > 100 µM
- TGI (DU-145 prostate): > 100 µM
- TGI (OVCAR-4 ovarian): > 100 µM
- TGI (NCI-H23 lung): > 100 µM
- TGI (U251 CNS): > 100 µM
- TGI (HS 578T breast): > 100 µM
- TGI (SR leukemia): > 100 µM
- TGI (OVCAR-5 ovarian): > 100 µM
- TGI (SNB-75 CNS): > 100 µM
- TGI (A498 renal): > 100 µM

Compound: COC(=O)c1c(C)nc2c1cc(O)c1[nH]c(C)c(C)nc12
- TGI (LOX IMVI melanoma): > 100 µM
- TGI (HL-60(TB) leukemia): > 100 µM
- TGI (DU-145 prostate): > 100 µM
- TGI (OVCAR-4 ovarian): > 100 µM
- TGI (NCI-H23 lung): > 100 µM
- TGI (U251 CNS): > 100 µM
- TGI (HS 578T breast): > 100 µM
- TGI (SR leukemia): > 100 µM
- TGI (OVCAR-5 ovarian): > 100 µM
- TGI (SNB-75 CNS): 71.8 µM
- TGI (A498 renal): > 100 µM

Compound: Nc1nc(-c2ccccc2)nc2oc(-c3cccs3)nc12
- TGI (LOX IMVI melanoma): > 100 µM
- TGI (HL-60(TB) leukemia): > 100 µM
- TGI (DU-145 prostate): > 100 µM
- TGI (NCI-H23 lung): > 100 µM
- TGI (U251 CNS): > 100 µM
- TGI (HS 578T breast): > 100 µM
- TGI (SR leukemia): > 100 µM
- TGI (OVCAR-5 ovarian): > 100 µM
- TGI (SNB-75 CNS): > 100 µM
- TGI (A498 renal): > 100 µM

Compound: CCC(=O)NC(Nc1cc(C)on1)(C(F)(F)F)C(F)(F)F
- TGI (LOX IMVI melanoma): > 100 µM
- TGI (HL-60(TB) leukemia): > 100 µM
- TGI (DU-145 prostate): > 100 µM
- TGI (NCI-H23 lung): > 100 µM
- TGI (U251 CNS): > 100 µM
- TGI (HS 578T breast): > 100 µM
- TGI (SR leukemia): > 100 µM
- TGI (OVCAR-5 ovarian): > 100 µM
- TGI (SNB-75 CNS): > 100 µM
- TGI (A498 renal): > 100 µM

Compound: COc1ncc(/C=C2\OC(=O)c3ccccc32)c(OC)n1
- TGI (LOX IMVI melanoma): > 100 µM
- TGI (HL-60(TB) leukemia): > 100 µM
- TGI (DU-145 prostate): > 100 µM
- TGI (NCI-H23 lung): > 100 µM
- TGI (U251 CNS): > 100 µM
- TGI (HS 578T breast): > 100 µM
- TGI (SR leukemia): > 100 µM
- TGI (OVCAR-5 ovarian): > 100 µM
- TGI (SNB-75 CNS): 47.3 µM
- TGI (A498 renal): > 100 µM

Compound: CN(C)CCNS(=O)(=O)c1ccc(N)cc1
- TGI (HL-60(TB) leukemia): > 100 µM
- TGI (DU-145 prostate): > 100 µM
- TGI (OVCAR-4 ovarian): > 100 µM
- TGI (NCI-H23 lung): > 100 µM
- TGI (U251 CNS): > 100 µM
- TGI (HS 578T breast): > 100 µM
- TGI (SR leukemia): > 100 µM
- TGI (OVCAR-5 ovarian): > 100 µM
- TGI (SNB-75 CNS): > 100 µM
- TGI (A498 renal): > 100 µM

Compound: COc1cccc(Nc2nc(-c3cccs3)nc3cc(OC)c(OC)cc23)c1
- TGI (HL-60(TB) leukemia): > 100 µM
- TGI (DU-145 prostate): > 100 µM
- TGI (OVCAR-4 ovarian): > 100 µM
- TGI (NCI-H23 lung): 89.7 µM
- TGI (U251 CNS): 61.8 µM
- TGI (HS 578T breast): 75.3 µM
- TGI (SR leukemia): 76.9 µM
- TGI (OVCAR-5 ovarian): > 100 µM
- TGI (SNB-75 CNS): 73.5 µM
- TGI (A498 renal): 48.5 µM

Compound: C=C1CCN2CC[C@@H](OC(=O)/C(C)=C\C)[C@@H]12
- TGI (LOX IMVI melanoma): > 100 µM
- TGI (DU-145 prostate): > 100 µM
- TGI (OVCAR-4 ovarian): > 100 µM
- TGI (NCI-H23 lung): > 100 µM
- TGI (U251 CNS): > 100 µM
- TGI (HS 578T breast): > 100 µM
- TGI (SR leukemia): > 100 µM
- TGI (OVCAR-5 ovarian): > 100 µM
- TGI (SNB-75 CNS): > 100 µM
- TGI (A498 renal): > 100 µM

Compound: CC(C)=CCC[C@@H](C)c1c(O)c(O)c(C)c2nccnc12
- TGI (LOX IMVI melanoma): > 100 µM
- TGI (DU-145 prostate): > 100 µM
- TGI (OVCAR-4 ovarian): > 100 µM
- TGI (NCI-H23 lung): > 79.1 µM
- TGI (U251 CNS): > 100 µM
- TGI (HS 578T breast): > 80.2 µM
- TGI (SR leukemia): > 100 µM
- TGI (OVCAR-5 ovarian): > 100 µM
- TGI (SNB-75 CNS): > 100 µM
- TGI (A498 renal): > 86.1 µM

Compound: COC(=O)C1CC(C=[N+](C)C)=C(SC)N1C(=O)OCc1ccccc1 (stereo unspecified)
- TGI (DU-145 prostate): > 100 µM
- TGI (OVCAR-4 ovarian): > 100 µM
- TGI (NCI-H23 lung): > 100 µM
- TGI (U251 CNS): > 100 µM
- TGI (HS 578T breast): > 100 µM
- TGI (SR leukemia): > 100 µM
- TGI (OVCAR-5 ovarian): > 100 µM
- TGI (SNB-75 CNS): > 100 µM
- TGI (A498 renal): > 100 µM

Compound: Cc1oc2c(cc(O)c3cc(O)ccc32)c2cccc1-2
- TGI (LOX IMVI melanoma): > 100 µM
- TGI (HL-60(TB) leukemia): > 100 µM
- TGI (DU-145 prostate): > 100 µM
- TGI (NCI-H23 lung): > 100 µM
- TGI (U251 CNS): > 100 µM
- TGI (HS 578T breast): > 100 µM
- TGI (SR leukemia): > 100 µM
- TGI (OVCAR-5 ovarian): > 100 µM
- TGI (SNB-75 CNS): > 100 µM
- TGI (A498 renal): > 100 µM

Compound: Cc1cc(C)nc(NS(=O)(=O)c2ccc(NC(=O)c3ccc4nc5ccccc5c(Nc5ccc(S(N)(=O)=O)cc5)c4c3)cc2)n1
- TGI (LOX IMVI melanoma): > 100 µM
- TGI (HL-60(TB) leukemia): > 100 µM
- TGI (DU-145 prostate): > 100 µM
- TGI (OVCAR-4 ovarian): > 100 µM
- TGI (NCI-H23 lung): > 100 µM
- TGI (U251 CNS): > 100 µM
- TGI (HS 578T breast): > 100 µM
- TGI (SR leukemia): > 100 µM
- TGI (OVCAR-5 ovarian): > 100 µM
- TGI (SNB-75 CNS): > 100 µM
